Results: PMC8950151, “Synthesis and Evaluation of the Antifungal and Toxicological Activity of Nitrofuran Derivatives” (Pharmaceutics, 2022)
Values after ≈ are worked out from the molar mass of the structure shown. Like-named read-outs stand apart in the source and are kept apart here.

Tests used:
[1] = test system: T. rubrum (ATCC 28289); assay: Minimum fungicidal concentration (MFC); assay type: cell-based, Trichophyton rubrum; details: for MFC: Trichophyton rubrum, ATCC28289
[2] = test system: Trichophyton mentagrophytes (ATCC 11481); assay: Susceptibility assay for dermatophytes (CLSI M38-A2, resazurin), MIC90; assay type: cell-based; details: T. mentagrophytes, 35 °C
[3] = test system: C. krusei (ATCC 6258); assay: Minimum fungicidal concentration (MFC); assay type: cell-based, Candida krusei; details: Pichia kudriavzevii, ATCC6258
[4] = in vitro; details: human
[5] = test system: Cryptococcus neoformans (H99/ATCC 208821); assay: Susceptibility test (CLSI M27-A3 broth microdilution, resazurin readout), MIC90; assay type: cell-based; details: ATCC208821, 48 h
[6] = test system: Cryptococcus neoformans (H99/ATCC 208821); assay: Minimum fungicidal concentration (MFC); assay type: cell-based; details: ATCC208821, C. neoformans
[7] = test system: A549 (ATCC CCL-185) lung epithelial cell line; assay: Cytotoxicity assay in monolayer by resazurin colorimetric method; assay type: cell-based; details: Homo sapiens, A549 cells, 72 h
[8] = test system: C. glabrata (ATCC 90030); assay: Minimum fungicidal concentration (MFC); assay type: cell-based, Candida glabrata; details: Nakaseomyces glabratus, ATCC90030
[9] = test system: C. glabrata (ATCC 90030); assay: Susceptibility test (CLSI M27-A3 broth microdilution, resazurin readout), MIC90; assay type: cell-based, Candida glabrata; details: Nakaseomyces glabratus, ATCC90030, 24 h, 37 °C
[10] = test system: Candida albicans (ATCC 90028); assay: Minimum fungicidal concentration (MFC); assay type: cell-based; details: ATCC90028, C. albicans
[11] = test system: Histoplasma capsulatum (G217-B/ATCC 26032); assay: microbe, parasite or virus in culture; assay type: cell-based; details: ATCC26032, 144 h
[12] = test system: Trichophyton mentagrophytes (ATCC 11481); assay: Minimum fungicidal concentration (MFC); assay type: cell-based; details: T. mentagrophytes; for MFC: Trichophyton mentagrophytes, ATCC11481
[13] = test system: T. rubrum (ATCC 28289); assay: Susceptibility assay for dermatophytes (CLSI M38-A2, resazurin), MIC90; assay type: cell-based; details: Trichophyton rubrum, ATCC28289, 96 h, 35 °C
[14] = test system: Candida albicans (ATCC 90028); assay: Susceptibility test (CLSI M27-A3 broth microdilution, resazurin readout), MIC90; assay type: cell-based; details: ATCC90028, C. albicans, 24 h, 37 °C
[15] = test system: Paracoccidioides brasiliensis (Pb 18); assay: microbe, parasite or virus in culture; assay type: cell-based; details: for MFC: Paracoccidioides brasiliensis
[16] = test system: C. krusei (ATCC 6258); assay: Susceptibility test (CLSI M27-A3 broth microdilution, resazurin readout), MIC90; assay type: cell-based, Candida krusei; details: Pichia kudriavzevii, ATCC6258, 24 h
[17] = test system: Histoplasma capsulatum (G217-B/ATCC 26032); assay: microbe, parasite or virus in culture; assay type: cell-based; details: ATCC26032
[18] = test system: Candida species; assay: Susceptibility test (CLSI M27-A3), MIC90, stated for Candida species together; assay type: cell-based; details: read-out: MIC90 against Candida species, Candida species (C. albicans, C. krusei, C. glabrata) taken together
[19] = in vivo; details: AU37 [glp-4 (bn2) I, sek-1 (km4) X], Caenorhabditis elegans, C. elegans larvae viability
Experimental: The experiments were carried out with the mutant strain (AU37 [glp-4 (bn2) I; […]]). The strain was maintained on plates containing nematode growth medium (NGM) seeded with Escherichia coli OP50 at 16 °C. The stage of synchronization of young adults at stage L4 was performed for the toxicity test. About 20 larvae were transferred to each well of 96-well plates containing 100 μL of a medium composed of 60% of 50 mM NaCl; 40% BHI broth; 10 mg/mL cholesterol in ethanol; 200 mg/mL ampicillin and 90 mg/mL kanamycin. Then, 100 μL of dilutions of nitrofuran derivatives (showing the best selectivity index against the fungal species) were added. […] Plates were incubated at 25 °C for 24 h. Survival was assessed by the mobility and shape of the nematode (stick-shaped larvae were considered dead, while sinusoidal larvae were considered alive) under an inverted optical microscope on 40× objective lenses.

[20] = test system: T. rubrum ATCC MYA-4438; assay: Quality control of dermatophyte susceptibility assay, MIC90; assay type: cell-based; details: Trichophyton rubrum; T. rubrum ATCC MYA-4438 control strain
Experimental: The experiments were performed according to CLSI […]-A2 [65] for dermatophytes, with minor modifications as described by Costa-Orlandi et al.. The fungal suspensions were adjusted by counting the conidia in the hematocytometer to reach a final concentration of 2.5 × 10^3 cells/mL in RPMI-1640 medium. This was added to the wells at the appropriate compound concentrations and incubated at 35 °C for 96 h with agitation (150 rpm). Visual and colorimetric readings were taken with the addition of 20 μL of 0.03% resazurin [61]. Quality control was performed using the strain of T. rubrum ATCC MYA-4438, with the drug TRB.

[21] = Trichophyton mentagrophytes, ATCC11481, 96 h, read-out: MIC90

Row | SMILES | MFC [1] [µg/mL] | MIC90 [2, 21] [µg/mL] | MFC [3] [µg/mL] | IC50 [4] [µg/mL] | MIC90 [5] [µg/mL] | MFC [6] [µg/mL] | IC50 [7] [µg/mL] | MFC ([8]; C. glabrata, read-out: MFC) [µg/mL] | MIC90 [9] [µg/mL] | MFC [10] [µg/mL] | MIC90 [11] [µg/mL] | MFC [12] [µg/mL] | MIC90 [13] [µg/mL] | MIC90 [14] [µg/mL] | MFC [15] [µg/mL] | MIC90 [16] [µg/mL] | MFC [17] [µg/mL] | viability at 24 h, 250 µg/mL [19] [%] | further results
1 | O=C(/C=C/c1ccc([N+](=O)[O-])o1)c1ccc(Cl)cc1Cl [Compound 16, (E)-1-(2,4-dichlorophenyl)-3-(5-nitrofuran-2-yl)prop-2-en-1-one] | 31.2 (≈ 100 µM) | 7.8 (≈ 25 µM) | > 250 | 29.9 (≈ 95.8 µM) | ≥ 250 | ≥ 250 | 35.6 (≈ 114 µM) | > 250 | > 250 | > 250 | 62.5 (≈ 200 µM) | 7.8 (≈ 25 µM) | 7.8 (≈ 25 µM) | 250 (≈ 801 µM) | 1.95 (≈ 6.25 µM) | > 250 | 62.5 (≈ 200 µM) | – | melting point: 164 to 165 °C; fungistatic / fungicidal profile ([1]; MFC versus MIC90): fungistatic profile
2 | CS(=O)(=O)c1ccc(C(=O)/C=C/c2ccc([N+](=O)[O-])o2)cc1 [Compound 15, (E)-1-(4-(methylsulfonyl)phenyl)-3-(5-nitrofuran-2-yl)prop-2-en-1-one] | 15.6 (≈ 48.6 µM) | 7.8 (≈ 24.3 µM) | > 250 | 11.5 (≈ 35.8 µM) | ≥ 250 | ≥ 250 | 34.2 (≈ 107 µM) | > 250 | > 250 | > 250 | > 250 | 15.6 (≈ 48.6 µM) | 7.8 (≈ 24.3 µM) | > 250 | 7.81 (≈ 24.3 µM) | > 250 | > 250 | – | melting point: 197 to 200 °C (dec.)
3 | O=C(NCCCn1ccnc1)c1ccc([N+](=O)[O-])o1 [Compound 2, N-(3-(1H-imidazol-1-yl)propyl)-5-nitrofuran-2-carboxamide] | > 250 | 125 (≈ 473 µM) | > 250 | 90.8 (≈ 343 µM) | ≥ 250 | ≥ 250 | 49.1 (≈ 186 µM) | > 250 | > 250 | > 250 | 250 (≈ 946 µM) | 125 (≈ 473 µM) | 125 (≈ 473 µM) | > 250 | 125 (≈ 473 µM) | > 250 | > 250 | – | melting point: 144 to 148 °C
4 | O=C(/C=C/c1ccccc1)OCc1ccc([N+](=O)[O-])o1 [Compound 1] | > 250 | 15.6 (≈ 57.1 µM) | 31.2 (≈ 114 µM) | 240 (≈ 880 µM) | 31.2 (≈ 114 µM) | 31.2 (≈ 114 µM) | 250 (≈ 915 µM) | > 250 | 7.81 (≈ 28.6 µM) | 125 (≈ 457 µM) | > 250 | 15.6 (≈ 57.1 µM) | > 250 | 3.9 (≈ 14.3 µM) | 62.5 (≈ 229 µM) | 31.2 (≈ 114 µM) | > 250 | > 94 | MIC90 [18]: 3.9 µg/mL (≈ 14.3 µM); fungistatic / fungicidal profile [15]: fungistatic profile
5 | O=C(NCCc1ccccn1)c1ccc([N+](=O)[O-])o1 [Compound 3, 5-nitro-N-(2-(pyridin-2-yl)ethyl)furan-2-carboxamide] | 125 (≈ 478 µM) | 62.5 (≈ 239 µM) | > 250 | 250 (≈ 957 µM) | 31.2 (≈ 120 µM) | 62.5 (≈ 239 µM) | 231 (≈ 885 µM) | > 250 | > 250 | > 250 | 3.9 (≈ 14.9 µM) | 250 (≈ 957 µM) | 125 (≈ 478 µM) | > 250 | 0.98 (≈ 3.75 µM) | 250 (≈ 957 µM) | 3.9 (≈ 14.9 µM) | 82.5 | fungistatic / fungicidal profile ([12]; MFC versus MIC90): fungistatic profile
6 | CN(C/C=C/C#CC(C)(C)C)Cc1cccc2ccccc12 [TRB, terbinafine] | – | – | – | – | – | – | – | – | – | – | – | – | – | – | – | – | – | – | MIC90 [20]: 0.03 µg/mL (≈ 0.103 µM)
7 | O=C(NCCCc1ccccc1)c1ccc([N+](=O)[O-])o1 [Compound 5] | 31.2 (≈ 114 µM) | 31.2 (≈ 114 µM) | 62.5 (≈ 228 µM) | 39.8 (≈ 145 µM) | 7.81 (≈ 28.5 µM) | 15.6 (≈ 56.9 µM) | 30.1 (≈ 110 µM) | – | 125 (≈ 456 µM) | 250 (≈ 911 µM) | 1.95 (≈ 7.11 µM) | 62.5 (≈ 228 µM) | 15.7 (≈ 57.1 µM) | 125 (≈ 456 µM) | 31.2 (≈ 114 µM) | 62.5 (≈ 228 µM) | 1.95 (≈ 7.11 µM) | 85.7 | MIC ([5]; read-out: MIC90): 3.9 µg/mL (≈ 14.2 µM); MFC [8]: 125 µg/mL (≈ 456 µM)
8 | O=C(/C=C/c1ccc([N+](=O)[O-])o1)c1cc(F)c(Cl)cc1Cl [Compound 17, (E)-1-(2,4-dichloro-5-fluorophenyl)-3-(5-nitrofuran-2-yl)prop-2-en-1-one] | > 250 | > 250 | > 250 | 1.56 (≈ 4.73 µM) | ≥ 250 | ≥ 250 | 68.2 (≈ 207 µM) | > 250 | > 250 | > 250 | > 250 | > 250 | > 250 | > 250 | 3.9 (≈ 11.8 µM) | > 250 | > 250 | – | –
9 | O=C(/C=C/c1ccc([N+](=O)[O-])o1)c1ccc(Cl)cc1 [Compound 10] | 7.81 (≈ 28.1 µM) | 3.9 (≈ 14 µM) | > 250 | 215 (≈ 776 µM) | 250 (≈ 900 µM) | ≥ 250 | 38.7 (≈ 139 µM) | > 250 | > 250 | > 250 | 7.81 (≈ 28.1 µM) | 7.81 (≈ 28.1 µM) | 3.9 (≈ 14 µM) | 250 (≈ 900 µM) | 0.98 (≈ 3.53 µM) | > 250 | 15.6 (≈ 56.3 µM) | – | –
10 | COc1ccc(C(=O)/C=C/c2ccc([N+](=O)[O-])o2)cc1 [Compound 12] | 1.95 (≈ 7.14 µM) | – | > 250 | 228 (≈ 834 µM) | 62.5 (≈ 229 µM) | 125 (≈ 457 µM) | 250 (≈ 915 µM) | > 250 | 250 (≈ 915 µM) | > 250 | 7.81 (≈ 28.6 µM) | 1.95 (≈ 7.14 µM) | 0.98 (≈ 3.59 µM) | 250 (≈ 915 µM) | 3.9 (≈ 14.3 µM) | 250 (≈ 915 µM) | 15.6 (≈ 57.2 µM) | > 94 | MIC90 ([2]; 96 h): 1.95 µg/mL (≈ 7.14 µM); MIC90 ([2]; Trichophyton mentagrophytes, ATCC11481, 96 h): 0.98 µg/mL (≈ 3.59 µM)
11 | O=C(/C=C/c1ccc([N+](=O)[O-])o1)c1ccc(Br)cc1 [Compound 11] | 15.6 (≈ 48.4 µM) | 7.8 (≈ 24.2 µM) | > 250 | 62.6 (≈ 194 µM) | ≥ 250 | ≥ 250 | 12.2 (≈ 38 µM) | > 250 | 250 (≈ 776 µM) | 250 (≈ 776 µM) | 0.48 (≈ 1.49 µM) | 7.8 (≈ 24.2 µM) | 7.8 (≈ 24.2 µM) | 125 (≈ 388 µM) | 0.98 (≈ 3.04 µM) | 250 (≈ 776 µM) | 0.48 (≈ 1.49 µM) | 80 | –
